Format in all cases: cell-based
In assay [1] the target is T1, RBCK1/RNF31 interaction (Homo sapiens, UniProt Q9BYM8).
T1 construct: expressed in transfected cells; host or cells: HEK-293
T1 sequence (Q9BYM8 1-510): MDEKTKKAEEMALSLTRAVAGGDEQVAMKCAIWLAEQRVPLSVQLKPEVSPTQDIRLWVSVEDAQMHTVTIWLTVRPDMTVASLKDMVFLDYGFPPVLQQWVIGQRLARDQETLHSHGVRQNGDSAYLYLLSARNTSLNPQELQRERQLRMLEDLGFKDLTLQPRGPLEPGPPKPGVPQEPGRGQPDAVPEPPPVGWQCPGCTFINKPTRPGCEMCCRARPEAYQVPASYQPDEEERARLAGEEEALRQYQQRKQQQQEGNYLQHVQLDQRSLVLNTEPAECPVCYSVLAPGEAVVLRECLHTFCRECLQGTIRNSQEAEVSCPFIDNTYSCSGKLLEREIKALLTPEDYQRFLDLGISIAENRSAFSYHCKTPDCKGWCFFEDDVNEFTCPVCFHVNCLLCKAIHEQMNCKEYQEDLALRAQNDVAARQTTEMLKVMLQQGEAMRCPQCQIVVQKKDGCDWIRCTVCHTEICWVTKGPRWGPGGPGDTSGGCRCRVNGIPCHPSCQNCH
Kind of assay: RBCK1/RNF31 co-immunoprecipitation (LUBAC complex formation) in co-transfected HEK-293 cells. To be noted: for RBCK1/RNF31 interaction (anti-HA immunoprecipitation, densitometry): HEK-293 cells, 5 μM or 20 μM, 24 hours, relative to DMSO (FIGS. 5, 6).

In assay [2] the test system is NF-κB. Description: NF-κB luciferase reporter assay. To be noted: for NF-κB activity: ABC DLBCL cells, Example 10 (FIG. 8A); for Relative NF-κB-luciferase reporter activity: HBL1 ABC DLBCL cells, 5 μM or 20 μM, 2 days, relative to DMSO (FIG. 4). Here is the method:
A third experiment was done using a different reporter system for NF-κB activity. HBL1 and TMD8 ABC DLBCL lines cell lines were created with an NF-κB transcriptional reporter by transduction with lentiviral particles containing an inducible NF-κB-responsive luciferase reporter construct (SA Biosciences, Valencia, Calif.) and selected with puromycin. Luciferase activity was measured using the DUAL-LUCIFERASE™ Reporter Assay System (Promega) on a Microtiter Plate Luminometer (Dyn-Ex Technologies, Chantilly, Va.). The transduced HBL and TMD8 cell lines were then transfected with constructs that inducibly express control (SC4) or RNF31 shRNAs described above. Expression of shRNAs was induced using doxycyline, and the luciferase reporter activity in shRNF31 expression cells was measured and normalized relative to control (SC4). Cells were also treated with the specific IKKβ inhibitor (MLN120B) as a positive control. Experiments were done in triplicate, and results are shown in FIG. 2C (error bars indicate SEM).
The ability of these peptides to inhibit NF-κB activity in ABC DLBCL was determined using the NF-κB luciferase reporter assay described above. Negative control cells were treated with dimethyl sulfoxide (DMSO), and positive control cells were treated with Bruton's tyrosine kinase (Btk) inhibitor ibrutinib. […] Cells were treated with peptides at concentrations of 5 μM or 20 μM for 2 days. Relative NF-κB-luciferase reporter activity was normalized and measured relative to control (DMSO-treated) cells. The results of triplicate experiments are shown in FIG. 4 (error bars indicate the SEM).

For assay [3], the system named is IκBα. Kind of assay: IκBα-luciferase reporter assay. Conditions: ABC DLBCL cells, Example 10 (FIG. 8B). An excerpt:
In a second experiment, HBL1 and TMD8 ABC DLBCL lines were engineered to contain an NF-κB-driven luciferase reporter. Vectors expressing an IκBα-luciferase fusion protein were constructed using Photinus luciferase from pGL3 vector (Promega, Madison, Wis.) as the reporter and Renilla luciferase construct from phRL-TK (Promega) was used for normalization. Stable clones were identified that were responsive to […] (see Lam et al, Clin Cancer Res, 11: 28-40 (2005)). After development with the DUAL-GLO luciferase assay system (Promega), the ratio of IκBα-Photinus to Renilla luminescence was normalized to that in untreated or uninduced cultures. The IκBα assay, which relies on the correlation between NF-κB activity and IKKβ kinase activity, was previously described in Lenz et al, Science, 319: 1676-1679 (2008). In brief, IKKβ kinase phosphorylates IκBα, which leads to degradation of IκBα (an inhibitor of NF-κB) and thereby activates NF-κB.
The engineered cells were transfected with control (SC4) or RNF31 shRNAs under the control of a doxycyline promoter as described in Example 2. Expression of shRNA was induced with doxycyline, and relative amounts of NF-κB Luciferase reporter activity was measured and normalized relative to control (SC4) shRNA. As additional controls, the expression of NF-κB Luciferase reporter activity was measured in cells that were not expressing shRNAs and which were either treated with the specific IKKβ inhibitor (“MLM-120B”) or untreated (“No Rx”). Experiments were done in triplicate and the results are shown in FIG. 2B (error bars indicate standard error of the mean (SEM)).

In assay [4] the test system is ABC DLBCL cell lines. Kind of assay: MTS cell viability assay, ABC DLBCL. On the procedure: (§1) ABC and GCB DLBCL cell lines were treated with RNF31 stapled peptides of Table 2 at concentrations of 5 μM or 20 μM for four days. Cell viability was determined using the following MTS assay. Cells were plated in triplicate at a density of 15,000 cells per well in 96-well plates. Cell viability after indicated treatments was assayed by adding 3-(4,5-dimethylthiazol-2-yl)-5-(3-carboxymethoxyphenyl)-2-(4-sulphophenyl)-2H tetrazolium and an electron coupling reagent (phenazine methosulphate from Promega, Madison, Wis.), incubated for 3 hours and measured by the amount of 490 nm absorbance using a 96-well plate reader. The background was subtracted using a media only control. The results of these MTS assays done in triplicate are shown in FIGS. 7A-7D (error bars indicate the SEM), and cell viability is expressed as the fraction of cells remaining after four days treatment, relative to the initial number of cells at the start of treatment (time 0). The results of MTS cell viability assay indicate that amino-terminal cross-linked peptides RNF31-N (SEQ ID NO: 11) and RNF31-NC (SEQ ID NO: 12) were toxic to ABC DLBCL cell lines but had little effect on GCB DLBCL cell lines tested.

For assay [5], the system named is GCB DLBCL cell lines. Description: MTS cell viability assay, GCB DLBCL. To be noted: 5 μM or 20 μM, four days (FIGS. 7A-7D). On the procedure: as §1
[6] abbreviates: ABC DLBCL cells, Example 10 (FIG. 8C).
Where [7] appears, read: ABC DLBCL cell lines, 5 μM or 20 μM, four days (FIGS. 7A-7D).

Entries after “also recorded” stand apart in the source; their conditions may differ. Positions of bridges follow the written chain, without caps; N, C: chain ends. Non-standard residues stand in square brackets, D forms with d. Residues, ends and D or L forms follow the SMILES beside them. S5 = C=CCCC[C@](C)(N)C(=O)O; βAla = NCCC(=O)O

Regarding `CC(=O)NCCC(=O)N[C@@H](CO)C(=O)N[C@@H](CCCNC(=N)N)C(=O)N[C@@]1(C)CCCC=CCCC[C@@](C)(C(=O)N[C@@H](CCC(N)=O)C(=O)N[C@@H](CCCNC(=N)N)C(=O)N[C@@H](CCC(N)=O)C(=O)N[C@@H](CCCNC(=N)N)C(=O)N[C@@H](CC(C)C)C(=O)N[C@@H](CCC(=O)O)C(=O)N2CCC[C@H]2C(=O)N[C@@H](Cc2ccccc2)C(=O)N[C@@H](CCCNC(=N)N)C(=O)N[C@@H](CC(C)C)C(=O)N[C@@H](CCCNC(=N)N)C(=O)N[C@@]2(C)CCCC=CCCC[C@@](C)(C(N)=O)NC(=O)[C@H](CO)NC(=O)[C@H](CC(=O)O)NC(=O)[C@H](Cc3c[nH]c4ccccc34)NC2=O)NC(=O)[C@H](CCC(=O)O)NC(=O)[C@H]([C@@H](C)O)NC(=O)[C@H](CC(C)C)NC1=O` [RNF31-NC Q2L, Ac-βAla Ser Arg Xaa Leu Thr Glu Xaa Gln Arg Gln Arg Leu Glu Pro Phe Arg Leu Arg Xaa Trp Asp Ser Xaa-NH2] (Ac-[βAla]SR[S5]LTE[S5]QRQRLEPFRLR[S5]WDS[S5]-NH2; staple 4-8, 20-24), the “Interference with LUBAC function” value in assay [1] (Example 9, tested as described in Example 7 (present tense)) was “interfere with LUBAC function”. In addition, the NF-κB activity result in assay [2] is reported as “inhibited NF-κB activity; also recorded: greatest activity”. Moreover, in assay [3], the “IκBα activity (IκBα-reporter)” value is reported as “decreased IκBα activity; also recorded: greatest activity”. For the same compound, the “Cell viability (MTS)” value in assay [4] (setting [6]) is “decreased cell viability; also recorded: greatest activity”.

With “Ac-βAla Ser Arg Ala Leu Thr Glu Leu Gln Arg Gln Arg Leu Glu Pro Phe Arg Gln Arg Leu Trp Asp Ser-NH2 (Ac-[βAla]SRALTELQRQRLEPFRQRLWDS-NH2; SMILES CC(=O)NCCC(=O)N[C@@H](CO)C(=O)N[C@@H](CCCNC(=N)N)C(=O)N[C@@H](C)C(=O)N[C@@H](CC(C)C)C(=O)N[C@H](C(=O)N[C@@H](CCC(=O)O)C(=O)N[C@@H](CC(C)C)C(=O)N[C@@H](CCC(N)=O)C(=O)N[C@@H](CCCNC(=N)N)C(=O)N[C@@H](CCC(N)=O)C(=O)N[C@@H](CCCNC(=N)N)C(=O)N[C@@H](CC(C)C)C(=O)N[C@@H](CCC(=O)O)C(=O)N1CCC[C@H]1C(=O)N[C@@H](Cc1ccccc1)C(=O)N[C@@H](CCCNC(=N)N)C(=O)N[C@@H](CCC(N)=O)C(=O)N[C@@H](CCCNC(=N)N)C(=O)N[C@@H](CC(C)C)C(=O)N[C@@H](Cc1c[nH]c2ccccc12)C(=O)N[C@@H](CC(=O)O)C(=O)N[C@@H](CO)C(N)=O)[C@@H](C)O) [RNF31-wt]”, the “RBCK1/RNF31 interaction (anti-HA immunoprecipitation, densitometry)” value (“RBCK1/RNF31 interaction” for short) in assay [1] was “little if any effect”. For the same compound, in assay [2], the NF-κB activity entry is “inhibited NF-κB activity” and the “Relative NF-κB-luciferase reporter activity” value was “less of an effect”. Further, the “IκBα activity (IκBα-reporter)” value in assay [3] is reported as “decreased IκBα activity”. Further, in assay [4] (setting [6]), the “Cell viability (MTS)” value is reported as “decreased cell viability”.

For the compound “Ac-βAla Ser Arg Xaa Leu Thr Glu Xaa Gln Arg Gln Arg Leu Glu Pro Phe Arg Gln Arg Leu Trp Asp Ser-NH2 (Ac-[βAla]SR[S5]LTE[S5]QRQRLEPFRQRLWDS-NH2; staple 4-8; SMILES CC(=O)NCCC(=O)N[C@@H](CO)C(=O)N[C@@H](CCCNC(=N)N)C(=O)N[C@@]1(C)CCCC=CCCC[C@@](C)(C(=O)N[C@@H](CCC(N)=O)C(=O)N[C@@H](CCCNC(=N)N)C(=O)N[C@@H](CCC(N)=O)C(=O)N[C@@H](CCCNC(=N)N)C(=O)N[C@@H](CC(C)C)C(=O)N[C@@H](CCC(=O)O)C(=O)N2CCC[C@H]2C(=O)N[C@@H](Cc2ccccc2)C(=O)N[C@@H](CCCNC(=N)N)C(=O)N[C@@H](CCC(N)=O)C(=O)N[C@@H](CCCNC(=N)N)C(=O)N[C@@H](CC(C)C)C(=O)N[C@@H](Cc2c[nH]c3ccccc23)C(=O)N[C@@H](CC(=O)O)C(=O)N[C@@H](CO)C(N)=O)NC(=O)[C@H](CCC(=O)O)NC(=O)[C@H]([C@@H](C)O)NC(=O)[C@H](CC(C)C)NC1=O) [RNF31-N]”, the “RBCK1/RNF31 interaction” value in assay [1] is reported as “inhibited RBCK1/RNF31 interaction in a dose-dependent fashion”. The “Cell viability (MTS)” value is “little effect” in assay [5] and “toxic” in assay [4] (setting [7]). In addition, in assay [2], the “Relative NF-κB-luciferase reporter activity” value is “strongly inhibit NF-κB”.

Take “Ac-βAla Ser Arg Xaa Leu Thr Glu Xaa Gln Arg Gln Arg Leu Glu Pro Phe Arg Gln Arg Xaa Trp Asp Ser Xaa-NH2 (Ac-[βAla]SR[S5]LTE[S5]QRQRLEPFRQR[S5]WDS[S5]-NH2; staple 20-24, 4-8; SMILES CC(=O)NCCC(=O)N[C@@H](CO)C(=O)N[C@@H](CCCNC(=N)N)C(=O)N[C@@]1(C)CCCC=CCCC[C@@](C)(C(=O)N[C@@H](CCC(N)=O)C(=O)N[C@@H](CCCNC(=N)N)C(=O)N[C@@H](CCC(N)=O)C(=O)N[C@@H](CCCNC(=N)N)C(=O)N[C@@H](CC(C)C)C(=O)N[C@@H](CCC(=O)O)C(=O)N2CCC[C@H]2C(=O)N[C@@H](Cc2ccccc2)C(=O)N[C@@H](CCCNC(=N)N)C(=O)N[C@@H](CCC(N)=O)C(=O)N[C@@H](CCCNC(=N)N)C(=O)N[C@@]2(C)CCCC=CCCC[C@@](C)(C(N)=O)NC(=O)[C@H](CO)NC(=O)[C@H](CC(=O)O)NC(=O)[C@H](Cc3c[nH]c4ccccc34)NC2=O)NC(=O)[C@H](CCC(=O)O)NC(=O)[C@H]([C@@H](C)O)NC(=O)[C@H](CC(C)C)NC1=O) [RNF31-NC]”: the “RBCK1/RNF31 interaction” value in assay [1] is “inhibited RBCK1/RNF31 interaction in a dose-dependent fashion”. Besides, the “Cell viability (MTS)” value in assay [5] is listed as “little effect”; in assay [4] (setting [7]), “toxic”. Moreover, in assay [2], the “Relative NF-κB-luciferase reporter activity” value was “strongly inhibit NF-κB”.

For the origin of these results see patent publication US9783586B2, “Inhibitors of the linear ubiquitin chain assembly complex (LUBAC) and related methods” (The United States of America, as represented by the …, priority 2013, dated 2017).
